Where two headings read alike, the source gives them in different places.
Experiments:
[1] = system: HIV strain IIIB (wild type); experiment: microbe, parasite or virus in culture; conditions: for pSI (IIIB) (-log SI; SI = ratio of CC50 to EC50): strain IIIB, CC50 in mock-infected MT4 CMV-EGFP cells
Protocol: Compounds of the invention were tested for their potency against wild type virus and clinically isolated HIV strains harboring one or more mutations associated with resistance to reverse transcriptase inhibitors. Antiviral activity was evaluated using a cellular assay performed according to the following procedure.
The human T-cell line MT4 was engineered with Green Fluorescent Protein (GFP) and a HIV-specific promoter, HIV-1 long terminal repeat (LTR). This cell line, designated MT4 LTR-EGFP, can be used for the in vitro evaluation of anti-HIV activity of investigational compounds. In HIV-1 infected cells, the Tat protein is produced, which upregulates the LTR promotor and eventually leads to stimulation of the GFP reporter production, allowing to measure ongoing HIV-infection fluorometrically.
Analogously, MT4 cells were engineered with GFP and the constitutional cytomegalovirus (CMV) promotor. This cell line was designated MT4 CMV-EGFP, and can be used for the in vitro evaluation of cytotoxicity of investigational compounds. […] Cytotoxic investigational compounds reduce GFP levels of mock-infected MT4 CMV-EGFP cells.
The ratio of CC50 to EC50 is defined as the selectivity index (SI) and is an indication of the selectivity of the anti-HIV activity of the inhibitor. The ultimate monitoring of HIV-1 infection and cytotoxicity was done using a scanning microscope. […] Measurements were done before cell necrosis, which usually takes place about five days after infection, in particular measurements were performed three days after infection.
The columns IIIB, L100I, etc. in the table list the pEC50 (−log EC50) values against various strains IIIB, L100I, etc.; pSI lists the −log SI values.
Strain IIIB is wild type HIV strain.

[2] = biological target: HIV strain MDR (L100I, K103N, Y181C, E138G, V1791, L2214F, V278V/I and A327A/V in HIV reverse transcriptase); experiment: microbe, parasite or virus in culture; type: cell-based, HIV-1; conditions: MDR strain; MT4 LTR-EGFP cells
From the text: (§1) Image analysis allowed very sensitive detection of viral infection.
“MDR” refers to a strain that contains mutations L100I, K103N, Y181C, E138G, V1791, L2214F, V278V/I and A327A/V in HIV reverse transcriptase.

[3] = system: HIV strain L100I + K103N; experiment: microbe, parasite or virus in culture; type: cell-based, HIV-1; conditions: L100I + K103N strain; MT4 LTR-EGFP cells
From the text: as §1

[4] = wild type HIV strain IIIB, MT4 LTR-EGFP cells, three days after infection

Row | SMILES | melting point [°C] | pSI (IIIB) (-log SI; SI = ratio of CC50 to EC50) [1] | IIIB pEC50 (-log EC50) [1, 4] | MDR pEC50 (-log EC50) [2] | L100I + K103N pEC50 (-log EC50) [3] | IIIB pEC50 (-log EC50) [1]
1 | COCc1nc(Nc2ccc(C#N)cc2)nc(Nc2ccc(/C=C/C#N)cc2)c1/C=C/c1ccc(C)cc1 | 139 |  |  |  |  | 
2 | COCc1nc(Nc2ccc(C#N)cc2)nc(Nc2ccc(/C=C/C#N)cc2)c1/C=C/c1ccc(OC)cc1 | 207 |  |  |  |  | 
3 | C=C(OCC)c1c(COC)nc(Nc2ccc(C#N)cc2)nc1Nc1ccc(/C=C/C#N)cc1 | 102 |  |  |  |  | 
4 | COCc1nc(Nc2ccc(C#N)cc2)nc(Nc2ccc(/C=C/C#N)cc2)c1C#Cc1cccnc1 | 210 |  |  |  |  | 
5 | COCc1nc(Nc2ccc(C#N)cc2)nc(Nc2c(C)cc(C=CC#N)cc2C)c1C(=O)NCc1cccnc1 (mixture of isomers) [Compound 8] |  | 3.13 | 8.54 | 7.07 | 7.57 | 
6 | COCc1nc(Nc2ccc(C#N)cc2)nc(Nc2c(C)cc(C=CC#N)cc2C)c1C(=O)NCC1CCCO1 (mixture of isomers) [Compound 9] |  | 3.55 | 8.28 | 6.45 | 7.26 | 
7 | COCCNC(=O)c1c(COC)nc(Nc2ccc(C#N)cc2)nc1Nc1c(C)cc(C=CC#N)cc1C (mixture of isomers) [Compound 10] |  | 3.44 | 8.46 | 7.30 | 8.10 | 
8 | COCc1nc(Nc2ccc(C#N)cc2)nc(Nc2c(C)cc(C=CC#N)cc2C)c1C(=O)NCc1ccncc1 (mixture of isomers) [Compound 11] |  | 3.59 | 8.47 | 7.24 | 7.43 | 
9 | COCc1nc(Nc2ccc(C#N)cc2)nc(Nc2c(C)cc(C=CC#N)cc2C)c1C(=O)NCCNC(C)=O (mixture of isomers) [Compound 12] |  | 3.59 | 8.25 | 6.68 | 7.42 | 
10 | COCc1nc(Nc2ccc(C#N)cc2)nc(Nc2c(C)cc(C=CC#N)cc2C)c1C(=O)NCCN1CCOCC1 (mixture of isomers) [Compound 14] |  | 3.70 | 8.41 | 6.42 | 6.67 | 
11 | COCc1nc(Nc2ccc(C#N)cc2)nc(Nc2c(C)cc(C=CC#N)cc2C)c1C(=O)NCCC#N (mixture of isomers) [Compound 16] |  | 4.22 | 8.90 | 7.03 | 7.55 | 
12 | COCc1nc(Nc2ccc(C#N)cc2)nc(Nc2c(C)cc(C=CC#N)cc2C)c1C(=O)NCc1cccs1 (mixture of isomers) [Compound 18] |  | >3.63 | 8.23 | 6.42 | 6.97 | 
13 | COCc1nc(Nc2ccc(C#N)cc2)nc(Nc2c(C)cc(C=CC#N)cc2C)c1C(=O)N(C)CCN(C)C (mixture of isomers) [Compound 21] |  | 2.53 | 7.49 | 5.44 | 6.31 | 
14 | COCc1nc(Nc2ccc(C#N)cc2)nc(Nc2c(C)cc(C=CC#N)cc2C)c1C(=O)N1CCCC(C(N)=O)C1 (mixture of isomers) [Compound 22] |  | >2.66 | 7.27 | 5.64 | 6.22 | 
15 | COCc1nc(Nc2ccc(C#N)cc2)nc(Nc2c(C)cc(C=CC#N)cc2C)c1C(=O)N(C)OC (mixture of isomers) [Compound 25] |  | 4.02 | 8.72 | 6.27 | 7.19 | 
16 | COCc1nc(Nc2ccc(C#N)cc2)nc(Nc2c(C)cc(C=CC#N)cc2C)c1C(=O)N1CCC(O)CC1 (mixture of isomers) [Compound 27] |  | >3.61 | 8.21 | 5.21 | 5.79 | 
17 | COCc1nc(Nc2ccc(C#N)cc2)nc(Nc2c(C)cc(C=CC#N)cc2C)c1C(=O)NCCc1ccc(S(N)(=O)=O)cc1 (mixture of isomers) [Compound 29] |  | >3.23 | 7.83 | 6.72 | 7.01 | 
18 | COCCNC(=O)c1c(COC)nc(Nc2ccc(C#N)cc2)nc1Nc1c(C)cc(C=C(C)C#N)cc1C (mixture of isomers) [Compound 32] |  |  | 8.48 | 7.05 | 7.80 | 
19 | COCc1nc(Nc2ccc(C#N)cc2)nc(Oc2c(C)cc(C=CC#N)cc2C)c1C(=O)NCc1ccncc1 (mixture of isomers) [Compound 33] |  | 3.54 | 8.40 | 5.91 | 7.03 | 
20 | COCc1nc(Nc2ccc(C#N)cc2)nc(Oc2c(C)cc(C=C(C)C#N)cc2C)c1C(=O)NCc1ccncc1 (mixture of isomers) [Compound 34] |  | 3.22 | 8.38 | 5.81 | 6.49 | 
21 | COCCNC(=O)c1c(COC)nc(Nc2ccc(C#N)cc2)nc1Oc1c(C)cc(C=CC#N)cc1C (mixture of isomers) [Compound 35] |  | 3.76 | 8.54 | 6.18 | 7.09 | 
22 | COCc1nc(Nc2ccc(C#N)cc2)nc(Nc2c(C)cc(/C=C/C#N)cc2C)c1C(=O)NCCN(C)C [Compound 13] |  | 3.32 | 8.41 | 5.69 | 6.81 | 
23 | COCc1nc(Nc2ccc(C#N)cc2)nc(Nc2c(C)cc(/C=C/C#N)cc2C)c1C(=O)NCCc1ccccn1 [Compound 15] |  | 3.52 | 8.55 | 6.43 | 7.24 | 
24 | COCc1nc(Nc2ccc(C#N)cc2)nc(Nc2c(C)cc(/C=C/C#N)cc2C)c1C(=O)N1CCN(CCO)CC1 [Compound 17] |  | >2.83 | 7.43 | 5.19 | 6.59 | 
25 | COCc1nc(Nc2ccc(C#N)cc2)nc(Nc2c(C)cc(/C=C/C#N)cc2C)c1C(=O)NCC(OC)OC [Compound 19] |  | 3.83 | 8.59 | 6.97 | 7.38 | 
26 | COCc1nc(Nc2ccc(C#N)cc2)nc(Nc2c(C)cc(/C=C/C#N)cc2C)c1C(=O)NCc1ccccn1 [Compound 20] |  | 3.81 | 8.83 | 7.03 | 7.28 | 
27 | COCc1nc(Nc2ccc(C#N)cc2)nc(Nc2c(C)cc(/C=C/C#N)cc2C)c1C(=O)NC1CC1 [Compound 23] |  | 3.87 | 8.62 | 6.85 | 7.81 | 
28 | C=CCNC(=O)c1c(COC)nc(Nc2ccc(C#N)cc2)nc1Nc1c(C)cc(/C=C/C#N)cc1C [Compound 24] |  |  |  | 6.72 | 7.99 | 8.66
29 | COCc1nc(Nc2ccc(C#N)cc2)nc(Nc2c(C)cc(/C=C/C#N)cc2C)c1C(=O)NCCc1cccs1 [Compound 30] |  | >3.24 | 7.84 | 5.79 | 6.67 | 
